In patent publication US10501479B2, “Benzenesulfonyl-asymmetric ureas and medical uses thereof” (HELSINN HEALTHCARE SA, priority 2016, dated 2019):
“And” between values parts separate entries of the source, which are not always exact repeats. Identical values can stand only once. Counter-ions that a name gives are not always drawn.

Assays:
[1] = biological target: T1, recombinant human ghrelin receptor (HEK293/GRLN) (Homo sapiens, UniProt Q92847); assay: Ghrelin inverse agonist potency (EC50) with IP-1 (IP-One HTRF) assay; type: cell-based; settings: inverse agonist potency, IP-1 assay; read-out: EC50 (Activity)
T1 construct: expressed in transfected cells
Experimental: Evaluation of Ghrelin Inverse Agonist Potency (EC50) with IP-1 Assay:
HEK293 cells stably expressing recombinant human ghrelin receptor (HEK293/GRLN) were used in the IP-One HTRF assay. One day before the test, cells were seeded at a density of 1.5×10^4/well in a Matrigel® coated 384-well plate with 30 μL of complete Dulbecco's Modified Eagle's Medium and incubated at 37° C. in 5% CO2 for 18-22 hours. On the test day, the medium was removed by centrifugation at 600 rpm for 30 seconds, and 20 μL of stimulation buffer containing 1x tested compound was added with Bravo (Agilent technologies). The plate was then incubated at 37° C. 5% CO2 for 1 hour. After the incubation, 5 μL of IP1-d2 and 5 μL of Tb-Cryp were added to all wells using multidrop Combi(Thermo). After additional incubation at room temperature for 1 hour, the plates were read on Envision with 620 and 665 (Perkin Elmer).

[2] = biological target: T2, GHSR-1a (HEK293/GHSR1a cell line) (Homo sapiens, UniProt Q92847); assay: Ghrelin antagonist potency (IC50) with calcium FLIPR assay, ghrelin 10 nM; type: cell-based; settings: ghrelin antagonist potency, read-out: IC50 (Activity)
T2 construct: expressed in transfected cells; host or cells: HEK293/GHSR1a cell line
Experimental: Evaluation of Ghrelin Agonist (EC50) and Antagonist Potency (IC50) with Calcium FLIPR Assay:
The intracellular calcium assay was carried out in a 384-well format FLIPR™ (Molecular Device) HEK293/GHSR1a cell line. Cells were seeded 24 hr prior to the experiments at an optimal density per well. Preincubation with selected calcium dye lasted for 30-60 min at room temperature or 37° C. Test compounds, dissolved in DMSO, were added at the appropriate time and incubated for 15 min followed by the addition of ghrelin with FlexStation or FLIPR. Relative fluorescence was monitored by the FLIPR™ Molecular Device. EC50 and IC50 values were estimated from dose-response data using GraphPad Prism software. To check for GHSR-1a agonism, the compound was added at t=20 sec. and the calcium response was followed for 2 minutes. To check for GHSR-1a antagonism, the compound and Ghrelin (10 nM) were added to the cells at t=20 sec. and the calcium response was measured for 2 minutes. The potency of the antagonist was calculated by its ability to reduce the ghrelin response. Dose-response curves were made for relevant antagonists.

T1 sequence (Q92847 whole entry): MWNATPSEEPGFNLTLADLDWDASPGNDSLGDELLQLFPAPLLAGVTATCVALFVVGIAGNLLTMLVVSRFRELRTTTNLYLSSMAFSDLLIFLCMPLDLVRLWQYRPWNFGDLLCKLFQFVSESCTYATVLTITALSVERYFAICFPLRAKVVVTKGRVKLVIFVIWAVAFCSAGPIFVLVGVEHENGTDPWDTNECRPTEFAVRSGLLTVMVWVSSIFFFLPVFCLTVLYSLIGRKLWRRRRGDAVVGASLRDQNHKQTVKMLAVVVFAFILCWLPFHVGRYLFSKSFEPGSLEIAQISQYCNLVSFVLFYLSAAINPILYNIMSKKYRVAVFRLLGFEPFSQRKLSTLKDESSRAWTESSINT
T2 sequence (Q92847 whole entry): as above

SMILES	EC50 [1]	IC50 [2]
C[C@H](NC(=O)Nc1ccc(S(=O)(=O)Cc2ccc3c(c2)CCNC3)cc1)c1ccccc1 [H1028, (S)-1-(1-phenylethyl)-3-(4-(((1,2,3,4-tetrahydroisoquinolin-6-yl)methyl)sulfonyl)phenyl)urea]	234 nM	414 nM
O=C(NCc1ccccc1)Nc1ccc(S(=O)(=O)Cc2ccc3c(c2)CCNC3)cc1 [H1029, 1-benzyl-3-(4-(((1,2,3,4-tetrahydroisoquinolin-6-yl)methyl)sulfonyl)phenyl)urea]	188 nM	332 nM
COc1ccc([C@H](C)NC(=O)Nc2ccc(S(=O)(=O)Nc3ccc4c(c3)CCN(C(C)=O)C4)cc2)c(Cl)c1Cl [H1034, (S)-N-(2-acetyl-1,2,3,4-tetrahydroisoquinolin-6-yl)-4-(3-(1-(2,3-dichloro-4-methoxyphenyl)ethyl)ureido) benzenesulfonamide]	1610 nM	1260 nM
O=C(NCc1cccc(Cl)c1)Nc1ccc(S(=O)(=O)Cc2ccc3c(c2)CCNC3)cc1 [H1038, 1-(3-chlorobenzyl)-3-(4-(((1,2,3,4-tetrahydroisoquinolin-6-yl)methyl)sulfonyl)phenyl)urea]	123 nM	376 nM
O=C(NCc1cccc(Cl)c1Cl)Nc1ccc(S(=O)(=O)Cc2ccc3c(c2)CCNC3)cc1 [H1040, 1-(2,3-dichlorobenzyl)-3-(4-(((1,2,3,4-tetrahydroisoquinolin-6-yl)methyl)sulfonyl)phenyl)urea]	164 nM	31.8 nM
CC(NC(=O)Nc1ccc(S(=O)(=O)Cc2ccc3c(c2)CCNC3)cc1)c1ccccc1Cl (stereo not drawn) [H1041, 1-(1-(2-chlorophenyl)ethyl)-3-(4-(((1,2,3,4-tetrahydroisoquinolin-6-yl)methyl)sulfonyl)phenyl)urea]	55.5 nM	17.4 nM
CC(NC(=O)Nc1ccc(S(=O)(=O)Cc2ccc3c(c2)CCNC3)cc1)c1cccc(Cl)c1 (stereo not drawn) [H1042, 1-(1-(3-chlorophenyl)ethyl)-3-(4-(((1,2,3,4-tetrahydroisoquinolin-6-yl)methyl)sulfonyl)phenyl)urea]	122 nM	36.6 nM
O=C(NCc1cccc(Cl)c1Cl)Nc1ccc(S(=O)(=O)Cc2ccc3c(c2)CNCC3)cc1 [H1044, 1-(2,3-dichlorobenzyl)-3-(4-(((1,2,3,4-tetrahydroisoquinolin-7-yl)methyl)sulfonyl)phenyl)urea]	143 nM	53.1 nM
C[C@H](NC(=O)Nc1ccc(S(=O)(=O)Cc2ccc3c(c2)CCN3)cc1)c1cccc(Cl)c1Cl [H1047, (S)-1-(1-(2,3-dichlorophenyl)ethyl)-3-(4-((indolin-5-ylmethyl)sulfonyl)phenyl)urea]	1160 nM	865 nM
C[C@H](NC(=O)Nc1ccc(S(=O)(=O)Nc2ccc3c(c2)CNCC3)cc1)c1cccc(Cl)c1Cl [H1049, (S)-4-(3-(1-(2,3-dichlorophenyl)ethyl)ureido)-N-(1,2,3,4-tetrahydroisoquinolin-7-yl)benzenesulfonamide]	29.6 nM	16.3 nM
C[C@H](NC(=O)Nc1ccc(S(=O)(=O)Nc2ccc(CN)cc2)cc1)c1cccc(Cl)c1Cl [H1050, (S)-N-(4-(aminomethyl)phenyl)-4-(3-(1-(2,3-dichlorophenyl)ethyl)ureido) benzenesulfonamide]	109 nM	57.4 nM
C[C@H](NC(=O)Nc1ccc(S(=O)(=O)Cc2ccc(CN)cc2)cc1)c1cccc(Cl)c1Cl [H1051, (S)-1-(4-((4-(aminomethyl)benzyl)sulfonyl)phenyl)-3-(1-(2,3-dichlorophenyl)ethyl)urea]	116 nM	53.7 nM
CCOC(=O)N1CCc2cc(CS(=O)(=O)c3ccc(NC(=O)N[C@@H](C)c4cccc(Cl)c4Cl)cc3)ccc2C1 [H1055, ethyl (S)-6-(((4-(3-(1-(2,3-dichlorophenyl)ethyl)ureido)phenyl)sulfonyl)methyl)-3,4-dihydroisoquinoline-2(1H)-carboxylate]	516 nM	4470 nM
C[C@H](NC(=O)Nc1ccc(S(=O)(=O)Cc2ccc3c(c2)CCN(Cc2ccccc2)C3)cc1)c1cccc(Cl)c1Cl [H1072, (S)-1-(4-(((2-benzyl-1,2,3,4-tetrahydroisoquinolin-6-yl)methyl)sulfonyl)phenyl)-3-(1-(2,3-dichlorophenyl)ethyl)urea]	21.9 nM	123 nM
C[C@H](NC(=O)Nc1ccc(S(=O)(=O)Nc2ccc(C(C)(C)N)cc2)cc1)c1cccc(Cl)c1Cl [H1074, (S)-N-(4-(2-aminopropan-2-yl)phenyl)-4-(3-(1-(2,3-dichlorophenyl)ethyl)ureido) benzenesulfonamide]	657 nM	3250 nM
C[C@H](NC(=O)Nc1ccc(S(=O)(=O)Cc2cccc(CO)c2)cc1)c1cccc(Cl)c1Cl [H1088, (S)-1-(1-(2,3-dichlorophenyl)ethyl)-3-(4-((3-(hydroxymethyl)benzyl)sulfonyl)phenyl)urea]	367 nM	7970 nM
COCc1ccc(CS(=O)(=O)c2ccc(NC(=O)N[C@@H](C)c3cccc(Cl)c3Cl)cc2)cc1 [H1093, (S)-1-(1-(2,3-dichlorophenyl)ethyl)-3-(4-((4-(methoxymethyl)benzyl)sulfonyl)phenyl)urea]	327 nM	2380 nM
C[C@H](NC(=O)Nc1ccc(S(=O)(=O)Cc2ccc3c(c2)COCC3)cc1)c1cccc(Cl)c1Cl [H1097, (S)-1-(1-(2,3-dichlorophenyl)ethyl)-3-(4-((isochroman-7-ylmethyl)sulfonyl)phenyl)urea]	363 nM	1970 nM
C[C@H](NC(=O)Nc1ccc(S(=O)(=O)Cc2ccc3c(c2)COC3)cc1)c1cccc(Cl)c1Cl [H1098, (S)-1-(1-(2,3-dichlorophenyl)ethyl)-3-(4-(((1,3-dihydroisobenzofuran-5-yl)methyl)sulfonyl)phenyl)urea]	649 nM	12100 nM
C[C@H](NC(=O)Nc1ccc(S(=O)(=O)Cc2ccc(O)cc2)cc1)c1cccc(Cl)c1Cl [H1099, (S)-1-(1-(2,3-dichlorophenyl)ethyl)-3-(4-((4-hydroxybenzyl)sulfonyl)phenyl)urea]	1140 nM	8670 nM
CC(c1ccc2c(c1)CCNC2)S(=O)(=O)c1ccc(NC(=O)N[C@@H](C)c2cccc(Cl)c2Cl)cc1 (stereo partly drawn) [H1102, 1-((S)-1-(2,3-dichlorophenyl)ethyl)-3-(4-((1-(1,2,3,4-tetrahydroisoquinolin-6-yl)ethyl)sulfonyl)phenyl)urea hydrochloride]	58.3 nM and 21.6 nM	73.9 nM
CC(c1ccc2c(c1)CCNC2)S(=O)(=O)c1ccc(NC(=O)N[C@@H](C)c2cccc(Cl)c2Cl)cc1 (stereo partly drawn) [H1103, 1-((S)-1-(2,3-dichlorophenyl)ethyl)-3-(4-((1-(1,2,3,4-tetrahydroisoquinolin-6-yl)ethyl)sulfonyl)phenyl)urea hydrochloride]	66 nM	487 nM
C[C@H](NC(=O)Nc1ccc(S(=O)(=O)Nc2ccc3[nH]ncc3c2)cc1)c1cccc(Cl)c1Cl [H1106, (S)-4-(3-(1-(2,3-dichlorophenyl)ethyl)ureido)-N-(1H-indazol-5-yl) benzenesulfonamide]	862 nM	1430 nM
C[C@H](NC(=O)Nc1ccc(S(=O)(=O)Nc2ccc(-c3cnc[nH]3)cc2)cc1)c1cccc(Cl)c1Cl [H1109, (S)-N-(4-(1H-imidazol-5-yl)phenyl)-4-(3-(1-(2,3-dichlorophenyl)ethyl)ureido) benzenesulfonamide]	136 nM	427 nM
